The source of these data is patent US20250368634A1, “PHENYL AMIDE COMPOUNDS AND METHODS OF USE” (SCHRÖDINGER, INC., priority 2022, published 2025).

SMILES strings stand for the structures.

The first test deals with SOS1-KRas (G12C) (Homo sapiens (Human), UniProt Q07889). In words: SOS1-KRas (G12C) FRET Assay. The format is binding.
SOS1-KRas (G12C), sequence (Q07889 564-1049, stated change not applied): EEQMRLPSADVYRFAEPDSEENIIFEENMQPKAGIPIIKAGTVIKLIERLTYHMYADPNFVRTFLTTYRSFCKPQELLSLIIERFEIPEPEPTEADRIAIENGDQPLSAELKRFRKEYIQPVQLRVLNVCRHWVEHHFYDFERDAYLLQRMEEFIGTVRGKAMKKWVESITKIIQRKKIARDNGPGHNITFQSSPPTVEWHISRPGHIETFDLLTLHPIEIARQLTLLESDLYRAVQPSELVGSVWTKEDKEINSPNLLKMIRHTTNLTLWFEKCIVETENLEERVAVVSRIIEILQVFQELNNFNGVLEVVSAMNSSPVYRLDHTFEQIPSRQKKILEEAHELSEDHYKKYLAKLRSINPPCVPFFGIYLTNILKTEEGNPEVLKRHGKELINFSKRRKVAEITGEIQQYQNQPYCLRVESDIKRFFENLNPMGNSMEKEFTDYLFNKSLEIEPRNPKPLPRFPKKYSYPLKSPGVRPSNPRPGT
Details: not given
In general, IC50 refers to the concentration that inhibits the measured activity by half. Low values mean inhibition by little substance, high ones a need for much substance. Molecule `C[C@@H](NC(=O)c1cc(O[C@@H]2CCOC2)c(F)cc1NC1CCN(C)CC1)c1cccc(C(F)F)c1F` [Example 9, N—((R)-1-(3-(difluoromethyl)-2-fluorophenyl)ethyl)-4-fluoro-2-((1-methylpiperidin-4-yl)amino)-5-(((R)-tetrahydrofuran-3-yl)oxy)benzamide] yielded a concentration for half-maximal inhibition (IC50) of 94 nM. This lies in the double-digit nanomolar range.

The molecule `C[C@@H](NC(=O)c1cc(N2CCn3nccc3C2)c(F)cc1NC1CCN(C)CC1)c1cccc(C(F)F)c1F` [Example 7, (R)—N-(1-(3-(difluoromethyl)-2-fluorophenyl)ethyl)-5-(6,7-dihydropyrazolo[1,5-a]pyrazin-5 (4H)-yl)-4-fluoro-2-((1-methylpiperidin-4-yl)amino)benzamide] displayed an IC50 of 27.9 nM.

`C[C@@H](NC(=O)c1cc(-c2ccncc2)c(F)cc1N[C@H]1CN2CCC1CC2)c1cccc(C(F)F)c1F` (single isomer, unassigned) [Example 58] came in with an IC50 of 7.9 nM.

With `C[C@@H](NC(=O)c1cc(N2CC3CC(C2)O3)c(F)cc1NC1CCN(C)CC1)c1cccc(C(F)F)c1F` [Example 6, 5-(6-oxa-3-azabicyclo[3.1.1]heptan-3-yl)-N—((R)-1-(3-(difluoromethyl)-2-fluorophenyl)ethyl)-4-fluoro-2-((1-methylpiperidin-4-yl)amino)benzamide], the half-inhibitory concentration (IC50) is 88 nM.

In the case of `C[C@@H](NC(=O)c1cc(-c2ccncc2)c(F)cc1N[C@@H]1CN2CCC1CC2)c1cccc(C(F)F)c1F` (single isomer, unassigned) [Example 59], the IC50 stood at 25.7 nM.

The same test, now with this note: inhibition of SOS1:KRAS interaction; 0.5 nM His10-SOS1 (res. 564-1049), 2.5 nM GST-KRAS (res. 1-169, G12C); 2 hrs at RT.
As to `C[C@@H](NC(=O)c1cc(O[C@H]2CCOC2)c(F)cc1NC1CCN(C)CC1)c1cccc(C(F)F)c1F` [Example 10, N—((R)-1-(3-(difluoromethyl)-2-fluorophenyl)ethyl)-4-fluoro-2-((1-methylpiperidin-4-yl)amino)-5-(((S)-tetrahydrofuran-3-yl)oxy)benzamide], half-maximal inhibition (IC50) required 71.6 nM. In other words, the double-digit nanomolar range.

As to `C[C@@H](NC(=O)c1cc(N2CCC(F)(F)C2)c(F)cc1N[C@@H]1CN2CCC1CC2)c1cccc(C(F)F)c1F` [Example 26, N—((R)-1-(3-(difluoromethyl)-2-fluorophenyl)ethyl)-5-(3,3-difluoropyrrolidin-1-yl)-4-fluoro-2-(((S)-quinuclidin-3-yl)amino)benzamide], the half-inhibitory concentration (IC50) stood at 88.8 nM.

`C[C@@H](NC(=O)c1cc(N2C[C@H]3C[C@@H]2CO3)c(F)cc1NC1CCN(C)CC1)c1cccc(C(F)F)c1F` [Example 2, 5-((1R,4R)-2-oxa-5-azabicyclo[2.2.1]heptan-5-yl)-N—((R)-1-(3-(difluoromethyl)-2-fluorophenyl)ethyl)-4-fluoro-2-((1-methylpiperidin-4-yl)amino)benzamide] showed an IC50 of 99.5 nM.

Molecule `CC(=O)N1CCN(c2cc(C(=O)N[C@H](C)c3cccc(C(F)(F)F)c3C)c(NC3CCN(C)CC3)cc2F)CC1` [Example 22, (R)-5-(4-acetylpiperazin-1-yl)-4-fluoro-N-(1-(2-methyl-3-(trifluoromethyl)phenyl)ethyl)-2-((1-methylpiperidin-4-yl)amino)benzamide] registered a half-inhibitory concentration (IC50) of 20.6 nM.

Regarding `C[C@@H](NC(=O)c1cc(C(=O)N(C)C)c(F)cc1NC1CCN(C)CC1)c1cccc(C(F)F)c1F` [Example 75, (R)—N1-(1-(3-(difluoromethyl)-2-fluorophenyl)ethyl)-4-fluoro-N3,N3-dimethyl-6-((1-methylpiperidin-4-yl)amino)isophthalamide], 244 nM corresponded to half-maximal inhibition (IC50).

In the case of `C[C@@H](NC(=O)c1cc(N2CCOCC2)c(F)cc1NC(C)(C)C#N)c1cccc(C(F)F)c1F` [Example 51, (R)-2-((2-cyanopropan-2-yl)amino)-N-(1-(3-(difluoromethyl)-2-fluorophenyl)ethyl)-4-fluoro-5-morpholinobenzamide], half-maximal inhibition (IC50) required 333 nM. This IC50 and that of the molecule before are within 1.5-fold of each other.

For the molecule `Cc1c([C@@H](C)NC(=O)c2cc(N3CCOCC3)ccc2NC2CCN(C)CC2)cccc1C(F)(F)F` [Example 23, (R)—N-(1-(2-methyl-3-(trifluoromethyl)phenyl)ethyl)-2-((1-methylpiperidin-4-yl)amino)-5-morpholinobenzamide], the IC50 came out at 358 nM.

In turn, `C[C@@H](NC(=O)c1cc(C2CC2)c(F)cc1NC1CCN(C)CC1)c1cccc(C(F)F)c1F` [Example 67, (R)-5-cyclopropyl-N-(1-(3-(difluoromethyl)-2-fluorophenyl)ethyl)-4-fluoro-2-((1-methylpiperidin-4-yl)amino)benzamide] had an IC50 of 216 nM.

Regarding `C[C@@H](NC(=O)c1cc(N2CCOCC2)c(C#N)cc1N[C@@H]1CN2CCC1CC2)c1cccc(C(F)F)c1F` [Example 25, 4-cyano-N—((R)-1-(3-(difluoromethyl)-2-fluorophenyl)ethyl)-5-morpholino-2-(((S)-quinuclidin-3-yl)amino)benzamide], half-maximal inhibition (IC50) required 7.4 nM.

With `C[C@@H](NC(=O)c1cc(N2CCOCC2)c(F)cc1NCCN)c1cccc(C(F)F)c1F` [Example 47, (R)-2-((2-aminoethyl)amino)-N-(1-(3-(difluoromethyl)-2-fluorophenyl)ethyl)-4-fluoro-5-morpholinobenzamide], the midpoint of inhibition, the IC50, lay at 33.7 nM.

`CC(C)NC(=O)c1cc(C(=O)N[C@H](C)c2cccc(C(F)F)c2F)c(NC2CCN(C)CC2)cc1F` [Example 76, (R)—N1-(1-(3-(difluoromethyl)-2-fluorophenyl)ethyl)-4-fluoro-N3-isopropyl-6-((1-methylpiperidin-4-yl)amino)isophthalamide] came in with an IC50 of 874 nM.

The molecule `C[C@@H](NC(=O)c1cc(-c2ccnnc2)c(F)cc1NC1CCN(C)CC1)c1cccc(C(F)F)c1F` [Example 65, (R)-N-(1-(3-(difluoromethyl)-2-fluorophenyl)ethyl)-4-fluoro-2-((1-methylpiperidin-4-yl)amino)-5-(pyridazin-4-yl)benzamide] yielded an IC50 of 6.9 nM.

In turn, `C[C@@H](NC(=O)c1cc(-c2nnco2)c(F)cc1NC1CCN(C)CC1)c1cccc(C(F)F)c1F` [Example 72, (R)—N-(1-(3-(difluoromethyl)-2-fluorophenyl)ethyl)-4-fluoro-2-((1-methylpiperidin-4-yl)amino)-5-(1,3,4-oxadiazol-2-yl)benzamide] gave a 50% inhibitory concentration (IC50) of 11.4 nM. This IC50 lies about 1.7-fold higher than the previous one.

`C[C@@H](NC(=O)c1cc(N2CCOCC2)c(Cl)cc1N[C@H]1CN2CCC1CC2)c1cccc(C(F)F)c1F` [Example 80, 4-chloro-N—((R)-1-(3-(difluoromethyl)-2-fluorophenyl)ethyl)-5-morpholino-2-(((R)-quinuclidin-3-yl)amino)benzamide] showed a half-maximal inhibitory concentration (IC50) of 44.3 nM.

With `C[C@@H](NC(=O)c1cc(C(=O)N2CCC(F)(F)CC2)c(F)cc1NC1CCN(C)CC1)c1cccc(C(F)F)c1F` [Example 74, (R)—N-(1-(3-(difluoromethyl)-2-fluorophenyl)ethyl)-5-(4,4-difluoropiperidine-1-carbonyl)-4-fluoro-2-((1-methylpiperidin-4-yl)amino)benzamide], the IC50 was 888 nM.

As for `C[C@@H](NC(=O)c1cc(N2CCOCC2)c(C#N)cc1NC1CCN(C)CC1)c1cccc(C(F)F)c1F` [Example 4, (R)-4-cyano-N-(1-(3-(difluoromethyl)-2-fluorophenyl)ethyl)-2-((1-methylpiperidin-4-yl)-amino)-5-morpholinobenzamide], the IC50 is 15 nM. Compared with the last molecule, the IC50 is about 59-fold lower.

As to `C[C@@H](NC(=O)c1cc(N2CCC2)c(F)cc1N[C@@H]1CN2CCC1CC2)c1cccc(C(F)F)c1F` [Example 28, 5-(azetidin-1-yl)-N—((R)-1-(3-(difluoromethyl)-2-fluorophenyl)ethyl)-4-fluoro-2-(((S)-quinuclidin-3-yl)amino)benzamide], the midpoint of inhibition, the IC50, lay at 61.3 nM.

Molecule `C[C@@H](NC(=O)c1cc(N2CC(F)(F)C[C@@H]2C)c(F)cc1NC1CCN(C)CC1)c1cccc(C(F)F)c1F` [Example 37, 5-((S)-4,4-difluoro-2-methylpyrrolidin-1-yl)-N-((R)-1-(3-(difluoromethyl)-2-fluorophenyl)ethyl)-4-fluoro-2-((1-methylpiperidin-4-yl)amino)benzamide] gave a concentration for half-maximal inhibition (IC50) of 138 nM. This IC50 is about 2.3-fold higher than that of the molecule before.

As to `Cc1c(C#N)cccc1[C@@H](C)NC(=O)c1cc(N2CCOCC2)c(F)cc1N[C@@H]1CN2CCC1CC2` [Example 44, N—((R)-1-(3-cyano-2-methylphenyl)ethyl)-4-fluoro-5-morpholino-2-(((S)-quinuclidin-3-yl)amino)benzamide], it took 210 nM to reach half-maximal inhibition (IC50).

With `C[C@@H](NC(=O)c1cc(N2CCOCC2)c(C(F)F)cc1NC1CCN(C)CC1)c1cccc(C(F)F)c1F` [Example 79, (R)-4-(difluoromethyl)-N-(1-(3-(difluoromethyl)-2-fluorophenyl)ethyl)-2-((1-methylpiperidin-4-yl)amino)-5-morpholinobenzamide], the IC50 was determined as 39.1 nM.

On to `Cc1c(C#N)cccc1[C@@H](C)NC(=O)c1cc(N2CCOCC2)c(F)cc1N[C@H]1CN2CCC1CC2` [Example 45, N—((R)-1-(3-cyano-2-methylphenyl)ethyl)-4-fluoro-5-morpholino-2-(((R)-quinuclidin-3-yl)amino)benzamide], for which the half-maximal inhibitory concentration (IC50) worked out at 69.2 nM.

Take `C[C@@H](NC(=O)c1cc(N2CCCC2)c(F)cc1N[C@H]1CN2CCC1CC2)c1cccc(C(F)F)c1F` [Example 33, N—((R)-1-(3-(difluoromethyl)-2-fluorophenyl)ethyl)-4-fluoro-5-(pyrrolidin-1-yl)-2-(((R)-quinuclidin-3-yl)amino)benzamide]: the 50% inhibitory concentration (IC50) worked out at 35 nM. Against the preceding molecule, the IC50 is about 2-fold lower.

As to `C[C@@H](NC(=O)c1cc(N2CCOCC2)c(F)cc1N[C@@H]1CN2CCC1CC2)c1cccc(C(C)(F)F)c1F` [Example 42, N—((R)-1-(3-(1,1-difluoroethyl)-2-fluorophenyl)ethyl)-4-fluoro-5-morpholino-2-(((S)-quinuclidin-3-yl)amino)benzamide], 49.5 nM corresponded to half-maximal inhibition (IC50).

Regarding `C[C@@H](NC(=O)c1cc(N2CCOCC2)c(F)cc1NC(C)(C)CN(C)C)c1cccc(C(F)F)c1F` [Example 52, (R)—N-(1-(3-(difluoromethyl)-2-fluorophenyl)ethyl)-2-((1-(dimethylamino)-2-methylpropan-2-yl)amino)-4-fluoro-5-morpholinobenzamide], the IC50 came to 64.8 nM.
